Source: US20240197643A1, “ORAL DELIVERY OF NANOPARTICLES FOR KIDNEY DISEASE” (UNIVERSITY OF SOUTHERN CALIFORNIA, priority 2020, published 2024)
In brackets after ≈: the same amount, converted by molar mass. Where two headings read alike, the source gives them in different places. Each block holds one compound with its values, some of them ahead of it.

Experiments:
[1] = target: megalin (mouse) (UniProt A2ARV4); assay: confocal immunohistochemistry of mouse kidney sections 24 h after i.v. injection; colocalization of Cy7 micelle signal with anti-megalin Alexa Fluor 488 signal (ImageJ coloc2)
[2] = Solubility in MQ; format: physicochemical; conditions: MQ (water)
[3] = Encapsulation study of everolimus or rapamycin in micelles; format: physicochemical
Method: Micelles were assembled by dissolving DSPE-PEG(2000)-methoxy in methanol at 100 μM with either everolimus or rapamycin at different lipid:drug molar ratios (2:1, 5:1, 10:1, 20:1), mixing the components, and evaporating the organic solvent under nitrogen. The resulting film was dried under vacuum over night, and then hydrated at 80° C. for 30 min in water and allowed to cool to room temperature overnight before DLS and TEM analysis. DLS measurements were determined at 90° and 637 nm using a Malvern Zetasizer. Free drug was separated by syringe filtering micelles using PTFE syringe filter, pore size 0.1 μm. To calculate encapsulation efficiency and drug loading, micelles were disrupted using DMSO and encapsulated drug was quantified by reading absorbance at 278 nm in a UV Greiner 96-well plate.

[4] = Histology and intestinal localization after oral gavage; format: in vivo, C57BL/6 J mice; conditions: 24 h after oral gavage
Text: Following ex vivo imaging, the brain, heart, lungs, liver, kidneys, spleen, intestines, and bladder were immediately frozen and embedded in OCT (Tissue Tek, Sakura Finetek, Torrance, CA, USA). 10 μm sections were obtained (CM3050 S Cryostat, Leica, Nussloch, Germany) and placed on Superfrost Plus slides (Fisherbrand, Waltham, MA, USA). Tissue sections were stained with hematoxylin & eosin (H&E) and imaged (Leica DMi8, Leica, Wetzlar, Germany, N=3). For staining of intestinal mucin, tissue sample were processed with an alcian blue 1%, pH 2.5 stain kit (Newcomer Supply, Middleton, WI, USA). Briefly, tissue sections on slides were washed in acetic acid for 3 min, incubated in alcian blue for 30 min at 4° C. in a humidified chamber, and counterstained with Nuclear Fast Red (Vector Laboratories, Burlingame, CA, USA). Samples were mounted using VectaMount™ (Vector Laboratories, Burlingame, CA, USA).

[5] = Ex vivo imaging of orally administered CS-NP; format: in vivo, C57BL/6 J mice; conditions: oral gavage 10 mg/kg rhodamine
Method: To assess the biodistribution of CS-NP semi-quantitatively, 6-7 week old male and female C57BL/6 J mice (Jackson Laboratories, Bar Harbor, ME, USA) were orally gavaged with 10 mg/kg of rhodamine loaded in 200 μL of 500 μM CS-NP R, 10 mg/kg of free R, or PBS control. Mice were euthanized after 3, 24, or 48 h […] and organs (e.g., brain, heart, lungs, liver, kidneys, spleen, intestines, and bladder) were excised and imaged ex vivo on an AMI HTX in vivo imaging system (Spectral Instruments Imaging, Tucson, AZ, USA). The fluorescence signal was quantified via Aura software (Spectral Instruments Imaging, Tucson, AZ, USA, N ≥4), and the background was subtracted from the PBS treated group. The mean radiance (photons/s/cm2/sr) for each organ was quantified as a region of interest, and % of total organ fluorescence was obtained by dividing each organ by the sum of all the organ regions. Urine and blood samples were collected following organ harvest and stored at −20° C. until further analysis. All animal procedures followed NIH guidelines for the care and use of laboratory animals and were approved by the University of Southern California's Institutional Animal Care and Use Committee.

[6] = test system: Caco-2 cell monolayers; assay: Transepithelial resistance (TER) surveillance; format: cell-based, Human; conditions: up to 3 days after administration
Method: For transport and monolayer resistance experiments, Caco-2 cell monolayers were seeded onto Transwell inserts (Corning, NY, USA; diameter 6.5 mm, growth area 0.33 cm^2, pore size 0.4 μm), at an initial density of 3×10^5 cell/cm2 and maintained for 21 days in complete medium to form a confluent monolayer. The change of TER, representing the tightness of the cell monolayers, was measured by an EVOM2 Epithelial Voltohmmeter (World Precision Instruments, USA). Monolayers reaching steady-state values in the range of 300-400 Ω-cm^2 were used for studies.
Additionally, the effect of paracellular transport through tight junctions was monitored via TER of Caco-2 cells seeded on Transwell inserts. TER measurements were performed daily for three days prior to treatment with CS-NP R, free Rhodamine (free R), or PBS control to establish baseline measurements. TER was monitored every 6 h, then again on day 2 and 3 post-administration.

[7] = test system: Caco-2 cells; assay: Cellular uptake and transport of CS-NP with pathway inhibitors; format: in vitro ADME, Human; conditions: same conditions as CS-NP R
Method: To assess the cellular uptake pathways of chitosan nanoparticles, Caco-2 cells were pretreated with medium containing colchicine (transcytosis inhibitor, 10 μM, for 60 min) or wortmannin (macropinocytosis inhibitor, 0.06 mM, for 3 h) before 100 μL of 100 μM rhodamine-loaded chitosan nanoparticles (CS-NP R) was administered in the apical chamber. The amount of rhodamine fluorescence was measured in the basolateral chamber over the course of 4 h.

[8] = Serum fluorescence and absolute bioavailability after oral gavage; format: in vivo, C57BL/6 J mice; conditions: oral gavage 10 mg/kg rhodamine, relative to IV
Method: Blood draws were performed either retro-orbitally or via tail vein at 30 min, 3, 6, 12, 24, 36, and 48 h post-administration. Fluorescence was measured in serum and quantified using a rhodamine calibration curve developed in mouse serum.

[9] = human, in vivo, cited from earlier work
[10] = test system: AMPK; assay: Transwell intestinal cell model, pAMPK/AMPK ELISA of basolateral mpkCCDc14; format: cell-based; conditions: 300 μM, up to 48 h, across Caco2 monolayer on transwell insert
Text: FIG. 17A provides a transwell schematic of mpkCCDc14 cell monolayers, with a Caco2 cell monolayer seeded on the transwell insert. […] Chitosan Disrupts Intestinal Tight Junctions.

[11] = test system: epithelial sodium channel (ENaC); assay: ENaC current measurement in mpkCCDc14 monolayers; format: cell-based, Mouse; conditions: after 48 h, mpkCCDc14 cells, 300 μM met
Method: To validate the therapeutic efficacy of met on the reduction of ENAC current, TER and potential difference (PD) measurements were made on mpkCCDc14 cells seeded on Transwell filters as described above. ENaC-dependent equivalent short-circuit currents (leq) was estimated by Ohm's law, dividing the measured PD by the TER value and the area of one Transwell membrane (0.33 cm2). mpkCCDc14 cell cultures were treated with 100 μL CS-NP met (300 μM met), CS-NP, or PBS at pH 7.4.

[12] = Kidney health in PKD mice (i-Stat Chem-8+); format: in vivo, Pkd1fl/fl; Pax8 rtTA; Tet-O-Cre mice; conditions: day of harvest
Method: Serum components, electrolytes, and kidney health markers including sodium (Na), potassium (K), chloride (Cl), ionized calcium (iCa), total carbon dioxide (tCO2), glucose (Glu), blood urea nitrogen (BUN)/Urea, creatinine (Crea), hematocrit (Hct), hemoglobin (Hb), and anion gap (AnGap) were assessed in diseased Pkd1fl/fl; Pax8 rtTA; Tet-OCre mice. 90 μL of blood taken from the submandibular vein on the day of harvest was analyzed using Chem-8+ cartridges for the i-Stat Handheld Blood Analyzer (Abbott, Chicago, IL, USA).

[13] = human, in vivo; cited from earlier work
[14] = test system: cortical collecting duct (CCD); conditions: identified in the literature; cited from earlier work
[15] = cited from earlier work
[16] = DSPE-PEG(2000)-methoxy:drug molar ratio 2:1

Sequence of megalin (mouse) (A2ARV4 26-4660): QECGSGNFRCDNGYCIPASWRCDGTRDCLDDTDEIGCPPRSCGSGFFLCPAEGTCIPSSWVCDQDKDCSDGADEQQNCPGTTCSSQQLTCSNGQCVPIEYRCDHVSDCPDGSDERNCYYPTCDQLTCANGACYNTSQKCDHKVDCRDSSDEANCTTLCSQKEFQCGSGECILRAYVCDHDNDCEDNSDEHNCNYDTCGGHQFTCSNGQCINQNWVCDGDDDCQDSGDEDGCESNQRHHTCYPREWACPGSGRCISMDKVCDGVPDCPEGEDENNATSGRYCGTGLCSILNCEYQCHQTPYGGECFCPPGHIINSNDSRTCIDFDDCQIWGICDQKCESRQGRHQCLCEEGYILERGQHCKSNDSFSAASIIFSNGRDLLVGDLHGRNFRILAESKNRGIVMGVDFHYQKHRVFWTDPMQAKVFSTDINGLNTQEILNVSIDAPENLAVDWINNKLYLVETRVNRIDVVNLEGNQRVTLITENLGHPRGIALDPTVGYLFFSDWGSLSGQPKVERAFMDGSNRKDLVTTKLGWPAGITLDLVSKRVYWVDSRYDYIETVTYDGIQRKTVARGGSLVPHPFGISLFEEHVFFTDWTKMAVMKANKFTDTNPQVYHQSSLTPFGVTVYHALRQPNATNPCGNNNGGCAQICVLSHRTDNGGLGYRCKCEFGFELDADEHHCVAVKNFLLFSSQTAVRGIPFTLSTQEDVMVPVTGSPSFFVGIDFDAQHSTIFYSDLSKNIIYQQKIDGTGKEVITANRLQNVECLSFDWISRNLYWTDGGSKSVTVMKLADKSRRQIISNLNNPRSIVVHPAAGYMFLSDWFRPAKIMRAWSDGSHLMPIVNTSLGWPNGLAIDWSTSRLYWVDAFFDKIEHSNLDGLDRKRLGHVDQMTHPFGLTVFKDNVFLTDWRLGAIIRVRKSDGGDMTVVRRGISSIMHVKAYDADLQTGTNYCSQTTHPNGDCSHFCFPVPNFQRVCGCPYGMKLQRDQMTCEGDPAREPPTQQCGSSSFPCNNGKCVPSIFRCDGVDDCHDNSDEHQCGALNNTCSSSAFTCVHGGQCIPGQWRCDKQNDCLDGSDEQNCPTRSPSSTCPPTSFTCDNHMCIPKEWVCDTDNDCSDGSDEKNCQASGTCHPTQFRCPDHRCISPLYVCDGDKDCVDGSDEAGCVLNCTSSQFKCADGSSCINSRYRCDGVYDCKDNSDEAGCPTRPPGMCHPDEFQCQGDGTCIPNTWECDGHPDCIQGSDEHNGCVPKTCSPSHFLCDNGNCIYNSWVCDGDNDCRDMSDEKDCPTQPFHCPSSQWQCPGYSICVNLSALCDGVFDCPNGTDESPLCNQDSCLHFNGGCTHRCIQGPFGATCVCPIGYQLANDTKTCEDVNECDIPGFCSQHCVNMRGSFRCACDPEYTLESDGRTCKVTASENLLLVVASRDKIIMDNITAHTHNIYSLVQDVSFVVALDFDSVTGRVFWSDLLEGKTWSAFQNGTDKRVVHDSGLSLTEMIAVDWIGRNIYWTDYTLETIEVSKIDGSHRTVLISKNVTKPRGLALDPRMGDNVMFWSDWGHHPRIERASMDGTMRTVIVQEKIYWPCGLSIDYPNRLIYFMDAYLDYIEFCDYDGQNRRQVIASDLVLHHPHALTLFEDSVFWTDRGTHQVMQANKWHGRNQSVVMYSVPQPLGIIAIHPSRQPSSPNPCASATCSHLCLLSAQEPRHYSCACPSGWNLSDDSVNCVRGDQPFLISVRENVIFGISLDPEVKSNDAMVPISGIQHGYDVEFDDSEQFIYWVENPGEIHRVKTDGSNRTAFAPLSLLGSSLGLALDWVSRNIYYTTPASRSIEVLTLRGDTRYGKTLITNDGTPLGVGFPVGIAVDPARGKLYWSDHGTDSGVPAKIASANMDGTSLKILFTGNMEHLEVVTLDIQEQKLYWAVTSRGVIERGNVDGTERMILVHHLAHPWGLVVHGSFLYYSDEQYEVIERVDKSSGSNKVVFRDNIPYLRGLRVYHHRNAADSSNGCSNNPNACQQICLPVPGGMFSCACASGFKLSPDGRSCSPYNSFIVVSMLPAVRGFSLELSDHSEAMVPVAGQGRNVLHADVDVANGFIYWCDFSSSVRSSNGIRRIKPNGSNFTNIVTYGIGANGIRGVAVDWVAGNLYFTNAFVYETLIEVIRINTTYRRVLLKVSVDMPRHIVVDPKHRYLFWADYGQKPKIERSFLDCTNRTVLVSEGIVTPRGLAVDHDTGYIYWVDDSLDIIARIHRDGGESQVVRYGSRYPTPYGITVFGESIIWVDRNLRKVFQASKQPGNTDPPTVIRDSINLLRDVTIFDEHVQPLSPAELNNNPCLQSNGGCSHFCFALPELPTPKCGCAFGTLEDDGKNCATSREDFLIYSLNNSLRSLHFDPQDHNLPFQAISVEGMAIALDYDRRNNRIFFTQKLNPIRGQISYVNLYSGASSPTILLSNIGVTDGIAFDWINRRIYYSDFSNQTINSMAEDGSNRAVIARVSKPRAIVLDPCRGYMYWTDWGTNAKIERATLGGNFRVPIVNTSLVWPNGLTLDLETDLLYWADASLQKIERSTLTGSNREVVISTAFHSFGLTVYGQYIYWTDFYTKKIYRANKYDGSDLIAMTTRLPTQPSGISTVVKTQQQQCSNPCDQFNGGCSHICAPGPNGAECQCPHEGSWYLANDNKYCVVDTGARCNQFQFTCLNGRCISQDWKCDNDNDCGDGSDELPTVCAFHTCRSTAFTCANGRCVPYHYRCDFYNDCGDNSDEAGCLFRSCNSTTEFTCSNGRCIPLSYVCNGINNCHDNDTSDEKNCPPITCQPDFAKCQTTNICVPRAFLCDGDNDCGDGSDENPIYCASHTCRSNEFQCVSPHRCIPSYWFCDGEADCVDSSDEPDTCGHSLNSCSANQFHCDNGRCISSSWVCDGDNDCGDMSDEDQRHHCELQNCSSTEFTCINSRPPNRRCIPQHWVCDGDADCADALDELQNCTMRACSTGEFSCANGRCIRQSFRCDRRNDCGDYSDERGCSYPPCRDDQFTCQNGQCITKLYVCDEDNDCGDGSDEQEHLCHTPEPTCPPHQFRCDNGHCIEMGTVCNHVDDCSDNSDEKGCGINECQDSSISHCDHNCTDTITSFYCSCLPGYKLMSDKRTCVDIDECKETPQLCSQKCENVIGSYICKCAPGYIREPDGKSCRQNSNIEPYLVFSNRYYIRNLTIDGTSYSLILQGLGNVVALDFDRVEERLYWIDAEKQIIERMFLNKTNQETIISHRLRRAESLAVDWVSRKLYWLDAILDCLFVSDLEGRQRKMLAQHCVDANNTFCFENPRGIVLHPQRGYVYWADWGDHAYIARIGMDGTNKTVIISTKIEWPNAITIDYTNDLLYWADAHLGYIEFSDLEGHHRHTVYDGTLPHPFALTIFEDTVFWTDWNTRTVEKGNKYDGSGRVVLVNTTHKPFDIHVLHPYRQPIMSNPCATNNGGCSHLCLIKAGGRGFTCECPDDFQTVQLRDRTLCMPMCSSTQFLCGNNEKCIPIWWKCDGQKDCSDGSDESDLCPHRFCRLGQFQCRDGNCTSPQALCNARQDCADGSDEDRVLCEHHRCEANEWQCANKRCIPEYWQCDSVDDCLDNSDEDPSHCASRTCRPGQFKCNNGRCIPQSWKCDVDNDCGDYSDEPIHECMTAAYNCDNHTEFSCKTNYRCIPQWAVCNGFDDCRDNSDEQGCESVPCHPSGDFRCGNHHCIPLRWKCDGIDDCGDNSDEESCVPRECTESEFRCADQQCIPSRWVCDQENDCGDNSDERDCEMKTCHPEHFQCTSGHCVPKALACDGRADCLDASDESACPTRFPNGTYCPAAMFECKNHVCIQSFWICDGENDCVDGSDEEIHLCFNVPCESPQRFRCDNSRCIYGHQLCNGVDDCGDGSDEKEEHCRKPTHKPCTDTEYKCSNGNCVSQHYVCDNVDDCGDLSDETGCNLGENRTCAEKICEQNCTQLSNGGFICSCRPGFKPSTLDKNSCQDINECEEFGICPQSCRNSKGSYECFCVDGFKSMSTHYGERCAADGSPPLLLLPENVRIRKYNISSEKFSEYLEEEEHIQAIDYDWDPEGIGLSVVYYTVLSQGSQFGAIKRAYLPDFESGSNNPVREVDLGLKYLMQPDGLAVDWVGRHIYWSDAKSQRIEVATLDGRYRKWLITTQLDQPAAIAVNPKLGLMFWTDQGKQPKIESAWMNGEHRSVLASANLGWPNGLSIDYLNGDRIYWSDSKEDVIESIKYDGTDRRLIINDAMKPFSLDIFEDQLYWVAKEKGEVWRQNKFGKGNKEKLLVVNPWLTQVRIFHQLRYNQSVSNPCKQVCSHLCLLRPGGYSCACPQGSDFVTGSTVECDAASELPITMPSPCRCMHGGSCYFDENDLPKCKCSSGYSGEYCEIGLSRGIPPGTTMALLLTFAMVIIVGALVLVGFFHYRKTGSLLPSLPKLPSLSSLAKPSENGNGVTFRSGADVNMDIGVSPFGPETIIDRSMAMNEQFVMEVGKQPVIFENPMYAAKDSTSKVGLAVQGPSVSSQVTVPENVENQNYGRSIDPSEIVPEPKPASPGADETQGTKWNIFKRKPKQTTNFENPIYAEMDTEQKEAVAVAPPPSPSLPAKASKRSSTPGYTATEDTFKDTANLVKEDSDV

Compound: Cc1ccccc1C(=O)Nc1ccc(C(=O)N2CCCC(O)c3cc(Cl)ccc32)c(C)c1 (stereo not drawn) [tolvaptan]
clinical trial dropout rate [13]: 23%

Compound: CKDSPKSSKSIRFIPVST (listed as Homo sapiens)
Targeting location [14]: Type A
Water solubility [15]: Good

Compound: ELRGDRAKL-C: alternative CCD-targeting peptide, SEQ ID NO: 56 (ELRGDRAKLC; listed as Homo sapiens)
Targeting location [14]: CCD
Water solubility [15]: Good

Compound: KMGGTNHPE-C: cortical collecting duct (CCD)-targeting peptide, SEQ ID NO: 53 (KMGGTNHPEC; listed as Homo sapiens)
Targeting location [14]: PCT and CCD
Water solubility [15]: Good

Compound: MGSHIEPGG-C: cortical collecting duct (CCD)-targeting peptide, SEQ ID NO: 52 (MGSHIEPGGC; listed as Homo sapiens)
Targeting location [14]: PCT and CCD
Water solubility [15]: Good

The next lines start with results.

Pearson's R value (colocalization) [1]: 0.53
Compound: 45% PEG2000-(EEKKK)3E micelle (peptide (EEKKK)3E with added N-terminal cysteine, conjugated to DSPE-PEG(2000)-maleimide)

Pearson's R value (colocalization) [1]: 0.48
Compound: 45% PEG2000-(KKEEE)3K micelle (kidney-targeting peptide (KKEEE)3K with added N-terminal cysteine, conjugated to DSPE-PEG(2000)-maleimide)

solubility [2]: < 100 µg/mL
Encapsulation efficiency (%) [3, 16]: 87.1 ± 2.0%
Loading capacity (wt/wt %) [3, 16]: 13.0 ± 0.3 wt/wt %
Moles drug per mole micelle [3, 16]: 0.1 ± 0.01
Size (nm) ([3]; drug-loaded micelles, lipid:drug 2:1): 21.0 ± 1.3 nm
Compound: CO[C@H]1C[C@@H]2CC[C@@H](C)[C@@](O)(O2)C(=O)C(=O)N2CCCC[C@H]2C(=O)O[C@H]([C@H](C)C[C@@H]2CC[C@@H](OCCO)[C@H](OC)C2)CC(=O)[C@H](C)/C=C(\C)[C@@H](O)[C@@H](OC)C(=O)[C@H](C)C[C@H](C)/C=C/C=C/C=C/1C [Everolimus]

solubility [2]: 5 to 20 µg/mL (≈ 5.47 to 21.9 µM)
Compound: CO[C@H]1C[C@@H]2CC[C@@H](C)[C@@](O)(O2)C(=O)C(=O)N2CCCC[C@H]2C(=O)O[C@H]([C@H](C)C[C@@H]2CC[C@@H](O)[C@H](OC)C2)CC(=O)[C@H](C)/C=C(\C)[C@@H](O)[C@@H](OC)C(=O)[C@H](C)C[C@H](C)/C=C/C=C/C=C/1C [Rapamycin]

intestinal localization [4]: localized to the duodenum and ileum
% of total organ fluorescence accumulation in the intestines ([5]; 3 h): 45.8±14.0%
% of total organ fluorescence accumulation in the intestines ([5]; 24 h): 37.4±15.5%
% of total organ fluorescence accumulation in the intestines ([5]; 48 h): 38.5±15.1%
reduction in transport between the colchicine and wortmannin conditions [7]: No statistically significant reduction
absolute bioavailability [8]: 47.9%
Compound: CCN(CC)c1ccc2c(-c3ccccc3C(=O)O)c3ccc(=[N+](CC)CC)cc-3oc2c1.[Cl-] [free R, Rhodamine B]
changes in TER [6]: No changes in TER

serum components, electrolytes, and kidney health markers [12]: no significant difference between groups
Compound: CN(C)C(=N)N=C(N)N [free met, metformin]
patients with gastrointestinal (GI) discomfort [9]: 25%
patients with complete intolerance for the drug ([9]; listed as met): approximately 5%
patients with complete intolerance for the drug ([9]; listed as metformin): 5%
phosphorylated AMPK to total AMPK compared to CS-NP [10]: significant increase
ENaC current [11]: 79.2 μA/cm2
